Data: EP1021178B1, “SELENOPHENE ANTI-TUMOR AGENTS” (Purdue Research Foundation, priority 1996, dated 1997)

Columns and labels:
Assay in all cases: NCI human tumor cell panel
Type in all cases: cell-based
SK-MEL-28 = details: SK-MEL-28, read-out: Log10 LC50 (converted)
Description: (§1) Considering the diversity of tumors in terms of cell type, morphology, growth rate and other cellular characteristics, the U.S. National Cancer Institute (NCI) has developed a "disease-oriented" approach to antitumor activity screening (M.R. Boyd, in "Principle of Practice of Oncology" J.T. Devita, S. Hellman, S.A. Rosenberg (Eds.) Vol. 3, PPO Update, No. 10, 1989). This in vitro prescreening system is based on the measurement of antitumor cytotoxicity against human tumor cell line panels consisting of approximately 60 cell lines of major human tumors (including leukemia and slower growing tumor cells such as lung, colon, breast, skin, kidney, etc.). The most important advantage of the new in vitro screening panels is the opportunity to identify compounds that are selectively more cytotoxic to cells of slowly growing solid tumors than to rapidly growing leukemia cells.
(§2) The cytotoxic activity of the present selenophene compounds have been measured utilizing two different assays or screens. The first screen measures the cytotoxicity against a panel of sixty different human tumor cell lines. This assay provides data regarding the general cytotoxicity of an individual compound. In particular this type of assay is useful in identifying compounds which have enhanced cytotoxic activity against slow growing tumors as compared to faster growing tumor cells such as leukemia tumor cell lines. The identification of such compounds is critical since previously identified antitumor agents have low cytotoxic activity against slower growing tumors. […] The specificity of a cytotoxic compound for tumor cell lines relative to normal cells is an important characteristic of an effective antitumor agent.
(§3) Antitumor cytotoxicity data generated from the National Cancer Institute human tumor cell panels can also be expressed in a graphic pattern (mean graph) to display differential cell growth inhibition (K.D. Paull, R.H. Shoemaker, L. Hodes, A. Monks, D.A. Scudiero, L. Rubinstein, J. Plowman and M.R. Boyd, J. Nail. Cancer Inst., 81, 1088, 1989.) In the mean graph, the arithmetic mean of the logarithm of the GI50 (50% growth inhibition), TGI (total growth inhibition) or LC50 (50% lethal concentration) values is used as an anchor point. […] The length of a bar is indicative of differential cytotoxicity against a specific type of tumor cells or tumor panels.
(§4) The antitumor cytotoxicity of the selenophene compounds tested in those in vitro assays was measured by a microculture assay using either a 3-(4,5-dimethylthiazol-2-yl)-2,5-diphenyltetrazolium bromide (MTT) or sulforhodamine B (SRB) based assay. [M.R. Boyd in "Principles and Practices of Oncology," V.T. DeVita, Jr.]. The experiments were conducted at Purdue University in 96-well microtiter plates and the cytotoxic effects of the selenophene compounds on those cells were measured by cell count using a Coulter Z.F. counter (Hialeah, FL). The results are expressed as GI50, the concentration of drug at which cell numbers are reduced to 50% of control cell culture [T.C.K. Chan, C.J. Chang, N.M. Koonchanok and R.L. Geahlen, Biochem. Biophys. Res. Commun., 193, 1152, (1993); S. Hellman and S.A. Rosenberg (Eds.), Vol. 3, PPO Updates, Number 10, (1989).]
(§5) This in vitro microculture assay has an advantage over in vivo assays in that results are obtained within a week as opposed to several months. The MTT assay is based on the production of a dark blue formazan product by dehydrogenase in the mitochondria of live tumor cells after exposure to drug for 6 days [M.C. Alley, D.A. Scudiero, A. Monks, M.L. Hursey, M.J. Czerwinski, D.L. Fine, B.J. Abbott, J.G. Mayo, R.H. Shoemaker and M.R. Boyd, Cancer Res., 48, 589, 1988]. Thus, only live cells are stained and can be measured at 570 nm. […]

RPMI-8226 = details: RPMI-8226, read-out: Log10 LC50 (converted)
Description: as §1, §2, §3, §4, §5

IGROV1 = details: IGROV-1, read-out: Log10 LC50 (converted)
Description: as §1, §2, §3, §4, §5

U251 = details: U-251, read-out: Log10 LC50 (converted)
Description: as §1, §2, §3, §4, §5

HOP-62 = details: HOP-62, read-out: Log10 LC50 (converted)
Description: as §1, §2, §3, §4, §5

SK-MEL-2 = details: SK-MEL-2, read-out: Log10 LC50 (converted)
Description: as §1, §2, §3, §4, §5

MCF7 = details: MCF7, read-out: Log10 LC50 (converted)
Description: as §1, §2, §3, §4, §5

DU-145 = details: DU-145, read-out: Log10 LC50 (converted)
Description: as §1, §2, §3, §4, §5

SR = details: read-out: Log10 LC50 (converted)
Description: as §1, §2, §3, §4, §5

786-0 = details: 786-0, read-out: Log10 LC50 (converted)
Description: as §1, §2, §3, §4, §5

HCT-116 = details: HCT-116, read-out: Log10 LC50 (converted)
Description: as §1, §2, §3, §4, §5

SF-539 = details: SF-539, read-out: Log10 LC50 (converted)
Description: as §1, §2, §3, §4, §5

OVCAR-5 = details: OVCAR-5, read-out: Log10 LC50 (converted)
Description: as §1, §2, §3, §4, §5

HCT-15 = details: HCT-15, read-out: Log10 LC50 (converted)
Description: as §1, §2, §3, §4, §5

BT-549 = details: BT-549, read-out: Log10 LC50 (converted)
Description: as §1, §2, §3, §4, §5

K-562 = details: K562, read-out: Log10 LC50 (converted)
Description: as §1, §2, §3, §4, §5

SW-620 = details: SW-620, read-out: Log10 LC50 (converted)
Description: as §1, §2, §3, §4, §5

NCI-H322M = details: read-out: Log10 LC50 (converted)
Description: as §1, §2, §3, §4, §5

A549/ATCC = details: A549, read-out: Log10 LC50 (converted)
Description: as §1, §2, §3, §4, §5

NCI-H460 = details: NCI-H460, read-out: Log10 LC50 (converted)
Description: as §1, §2, §3, §4, §5

PC-3 = details: PC-3, read-out: Log10 LC50 (converted)
Description: as §1, §2, §3, §4, §5

| Compound | CC50 (SK-MEL-28) | CC50 (RPMI-8226) | CC50 (IGROV1) | CC50 (U251) | CC50 (HOP-62) | CC50 (SK-MEL-2) | CC50 (MCF7) | CC50 (DU-145) | CC50 (SR) | CC50 (786-0) | CC50 (HCT-116) | CC50 (SF-539) | CC50 (OVCAR-5) | CC50 (HCT-15) | CC50 (BT-549) | LC50 (K-562) | LC50 (concentration killing 50% of cells) (NCI-H322M) | CC50 (A549/ATCC) | LC50 (concentration killing 50% of cells) (NCI-H460) | CC50 (PC-3) | other results |
| --- | --- | --- | --- | --- | --- | --- | --- | --- | --- | --- | --- | --- | --- | --- | --- | --- | --- | --- | --- | --- | --- |
| O=Cc1ccc(-c2ccc(-c3ccc(C=O)[se]3)s2)s1 | > 100 µM | > 100 µM | 91.2 µM | > 100 µM | > 100 µM | > 100 µM | > 100 µM | > 100 µM | > 100 µM | 64.6 µM | > 100 µM | > 100 µM | > 100 µM | > 100 µM | > 100 µM | > 100 µM | > 100 µM | > 100 µM | > 100 µM | > 100 µM | CC50 (SW-620): > 100 µM |
| OCc1ccc(-c2ccc(-c3ccc(CO)[se]3)s2)s1 | > 100 µM | > 100 µM | 28.2 µM | 72.4 µM | 85.1 µM | > 100 µM | > 100 µM | > 100 µM | > 100 µM | 57.5 µM | 81.3 µM | 83.2 µM | > 100 µM | > 100 µM | > 100 µM | 97.7 µM | > 100 µM | > 100 µM | 28.8 µM | > 100 µM | CC50 (SW-620): > 100 µM |
| OCc1ccc(-c2ccc(-c3ccc[se]3)s2)[se]1 | > 100 µM | > 100 µM | 51.3 µM | 44.7 µM | > 100 µM | > 100 µM | > 100 µM | > 100 µM | > 100 µM | > 100 µM | > 100 µM | > 100 µM |  | > 100 µM | 87.1 µM | > 100 µM | > 100 µM | > 100 µM | > 100 µM | > 100 µM | CC50 (SW-620): > 100 µM |
| OCc1ccc(-c2ccc(-c3ccc[se]3)[se]2)[se]1 | 53.7 µM | > 100 µM | 12.3 µM | 55 µM | 44.7 µM | 69.2 µM | 29.5 µM | 46.8 µM | > 100 µM | 17.4 µM | 32.4 µM | 51.3 µM | > 100 µM | > 100 µM |  | > 100 µM | 47.9 µM | 46.8 µM | 22.9 µM | 36.3 µM | CC50 (SW-620): 35.5 µM |
| OCc1ccc(-c2ccc(-c3ccc(CO)[se]3)[se]2)[se]1 | > 100 µM | > 100 µM | 30.2 µM | 50.1 µM | 57.5 µM | 69.2 µM | 47.9 µM | 46.8 µM | > 100 µM | 70.8 µM | > 100 µM | 95.5 µM | > 100 µM | 55 µM | > 100 µM | 70.8 µM | 52.5 µM | 53.7 µM | 81.3 µM | 35.5 µM | CC50 (SW-620): 9.55 µM |
| OCc1ccc(-c2ccc(-c3ccc(CO)s3)[se]2)s1 | > 100 µM | > 100 µM |  | > 100 µM | > 100 µM | > 100 µM | > 100 µM | > 100 µM | > 100 µM | > 100 µM | > 100 µM | > 100 µM | > 100 µM | > 100 µM | > 100 µM | > 100 µM | > 100 µM | > 100 µM | > 100 µM | > 100 µM | CC50 (SW-620): > 100 µM |
| OCc1ccc(-c2ccc(-c3ccc(CO)[se]3)s2)[se]1 | > 100 µM | > 100 µM | > 100 µM | 46.8 µM | > 100 µM | > 100 µM | > 100 µM | > 100 µM | > 100 µM | > 100 µM | > 100 µM | > 100 µM | 0.776 µM | > 100 µM | > 100 µM | > 100 µM | > 100 µM | > 100 µM | > 100 µM | > 100 µM | CC50 (SW-620): > 100 µM |
| OCc1ccc(-c2ccc(-c3cccs3)[se]2)s1 | > 100 µM | > 100 µM | 16.2 µM | > 100 µM | > 100 µM | > 100 µM | > 100 µM | > 100 µM | > 100 µM | > 100 µM | 2.95 µM | > 100 µM | > 100 µM | > 100 µM | > 100 µM | > 100 µM | > 100 µM | > 100 µM | > 100 µM | > 100 µM | CC50 (SW-620): > 100 µM |
| O=Cc1ccc(-c2ccc(-c3ccc[se]3)[se]2)[se]1 | 55 µM | > 100 µM | 39.8 µM | 47.9 µM | 74.1 µM | > 100 µM | 43.7 µM | 51.3 µM |  | 43.7 µM | 38.9 µM | 63.1 µM | 75.9 µM | 79.4 µM | 79.4 µM | > 100 µM | 60.3 µM | 51.3 µM | 40.7 µM | 87.1 µM |  |
